Patent publication EP4813463A2, “TYK2 INHIBITORS AND COMPOSITIONS AND METHODS THEREOF” (Lynk Pharmaceuticals Co. Ltd., priority 2023, dated 2024)
Like-named read-outs stand apart in the source and are kept apart here.

Experiments:
[1] = test system: Ba/F3-FL-TYK2-P760L cells; assay: Anti-proliferative assay in engineered Ba/F3 cells (Cell-Titer Glo, 72 h); assay type: cell-based; conditions: 72 h compound treatment, concentration that causes 50% growth inhibition, read-out: Baf3-FL-T2P760L
Procedure: Dimerization domain of Tel protein fused with JAK kinase domain was permanently transduced into Ba/F3 cells, whose proliferation is dependent on JAK activity in the absence of IL-3 induction. These engineered Ba/F3-FL-TYK2-P760L cells were used to monitor JAK inhibitory activities of the compounds in the cellular. Ba/F3 cells were cultured in RPMI-1640 (Corning) containing 10% fetal bovine serum. Cells were seeded at 2000/well of white flat bottom 96-well plates. The well containing medium only was used as background control. After 24h growth, cells were treated with compounds. The test compounds were dissolved in DMSO to a stock concentration of 20 mM. 3-fold serially diluted compounds for 9 concentrations with top concentration of 20 µM was added into the each well. The final DMSO concentration was 0.1%. The cells continued to grow at 37°C in 5% CO2 for 72 h after compound treatment. The viability was measured by cellular ATP determination using the Cell-Titer Glo luciferase reagent (Promega). The Luminescence value was recorded by a multi-label reader Envision (PerkinElmer). Inhibition Rate was calculated relative to vehicle (DMSO) treated control wells using following formula: % Inhibition = 100−(RLU_compound−RLU_blank)/(RLU_control−RLU_blank) × 100% [formula] wherein • RLU_compound = the relative light unit of cells treated with test compounds • RLU_blank = the relative light unit of medium with DMSO only • RLU_control = the relative light unit of cells treated with DMSO only
Table 4. Ba/F3-FL-TYK2-P760L Cells IC50 Values of Exemplary Compounds

TYK2-JH2 domain = biological target: T1, TYK2-JH2 domain (Homo sapiens, UniProt P29597); assay: Binding activity test for JH2 domain of TYK2 (Tb-antibody/tracer FRET); conditions: JH2 domain enzyme; 60 min at 25°C, then 4°C overnight; read-out: TYK2 JH2 Binding IC50
T1 construct: JAK1-JH2 domain or TYK2-JH2 domain enzyme in assay buffer
Procedure, shortened: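 IC50 values (nM) come from TR-FRET readings taken after a 25°C incubation followed by overnight at 4°C. Each well held JH2 domain protein, Tb-antibody, tracer and test compound titrated in 11 threefold steps, with DMSO high and low controls.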

T1 sequence (P29597 589-875 limits assumed): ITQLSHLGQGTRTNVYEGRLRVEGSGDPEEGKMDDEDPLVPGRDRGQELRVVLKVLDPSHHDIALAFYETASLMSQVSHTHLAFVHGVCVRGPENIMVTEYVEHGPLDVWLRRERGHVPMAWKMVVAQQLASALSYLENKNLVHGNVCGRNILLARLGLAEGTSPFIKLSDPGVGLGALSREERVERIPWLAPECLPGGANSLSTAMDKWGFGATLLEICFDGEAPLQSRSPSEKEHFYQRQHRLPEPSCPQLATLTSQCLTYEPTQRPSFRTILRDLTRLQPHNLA

Compound | IC50 ([1]; Mus musculus, BaF3, 72 h) | IC50 (TYK2-JH2 domain) | IC50 [1]
CCC(F)(F)c1cnc(NC(=O)C2CC2)cc1Nc1nn(C)c2ccc(C(O)C(F)(F)F)c(OC)c12 (centres unmarked) [Example 129, N-(5-(1,1-difluoropropyl)-4-((4-methoxy-1-methyl-5-(2,2,2-trifluoro-1-hydroxyethyl)-1H-indazol-3-yl)amino)pyridin-2-yl)cyclopropanecarboxamide] | 1.41 nM | 0.466 nM | –
[2H]C([2H])([2H])NC(=O)c1cnc(NC(=O)C2CC2)cc1Nc1csc2ccc(C(OC)C(F)(F)F)c(OC)c12 (centres unmarked) [Example 72, 6-(Cyclopropanecarboxamido)-4-((4-methoxy-5-(2,2,2-trifluoro-1-methoxyethyl)benzo[b]thiophen-3-yl)amino)-N-(methyl-d3)nicotinamide] | 2.65 nM | 0.14 nM | –
COC(=O)c1cnc(NC(=O)C2CC2)cc1Nc1nn(C)c2ccc(Cl)c(OC)c12 [Example 137, Methyl 4-((5-chloro-4-methoxy-1-methyl-1H-indazol-3-yl)amino)-6-(cyclopropanecarboxamido)nicotinate] | 99.8 nM | 0.377 nM | –
[2H]C([2H])([2H])NC(=O)c1cnc(NC(=O)C2CC2)cc1Nc1nn(CC)c2ccc(C(O)C(F)(F)F)c(OC)c12 (single isomer, unassigned) [Example 71B, (R*)-6-(cyclopropanecarboxamido)-4-((1-ethyl-4-methoxy-5-(2,2,2-trifluoro-1-hydroxyethyl)-1H-indazol-3-yl)amino)-N-(methyl-d3)nicotinamide] | – | 0.25 nM | 17.9 nM
COC(=O)c1cnc(NC(=O)[C@@H]2C[C@@H]2F)cc1Nc1nn(C)c2ccc(C(O)C(F)(F)F)c(OC)c12 (stereo partly drawn) [Example 122, Methyl 6-((1S,2S)-2-fluorocyclopropane-1-carboxamido)-4-((4-methoxy-1-methyl-5-(2,2,2-trifluoro-1-hydroxyethyl)-1H-indazol-3-yl)amino) nicotinate] | 1.16 nM | 0.178 nM | –
[2H]C([2H])([2H])CC(=O)c1cnc(NC(=O)C2CC2)cc1Nc1nn(C)c2ccc(Cl)c(OC)c12 [Example 147, N-(4-((5-chloro-4-methoxy-1-methyl-1H-indazol-3-yl)amino)-5-(propanoyl-3,3,3-d3)pyridin-2-yl)cyclopropanecarboxamide] | 23.8 nM | 0.146 nM | –
COC(=O)c1cnc(NC(=O)C2CC2)cc1Nc1cccc(-c2cnn(C)n2)c1OC [Example 63, Methyl 6-(cyclopropanecarboxamido)-4-((2-methoxy-3-(2-methyl-2H-1,2,3-triazol-4-yl)phenyl)amino)nicotinate] | 48.4 nM | 0.285 nM | –
[2H]C([2H])([2H])NC(=O)c1nnc(NC(=O)C2CC2)cc1Nc1nn(C)c2ccc([C@H](OC([2H])([2H])[2H])C(F)(F)F)c(OC)c12 [Example 135, (S)-6-(cyclopropanecarboxamido)-4-((4-methoxy-1-methyl-5-(2,2,2-trifluoro-1-(methoxy-d3)ethyl)-1H-indazol-3-yl)amino)-N-(methyl-d3)pyridazine-3-carboxamide] | 0.327 nM | 0.07 nM | –
CCC(F)(F)c1cnc(NC(=O)C2CC2)cc1Nc1nccc2c1N(C)C(C)c1nn(C)nc1-2 (centres unmarked) [Example 178, N-(5-(1,1-Difluoropropyl)-4-((2,4,5-trimethyl-4,5-dihydro-2H-[1,2,3]triazolo[4,5-c][1,7]naphthyridin-6-yl)amino)pyridin-2-yl)cyclopropanecarboxamide] | 35 nM | 3.16 nM | –
COC(=O)c1cnc(NC(=O)C2CC2)cc1Nc1nn(C)c2ccc(C(O)C3(F)CC3)c(OC)c12 (centres unmarked) [Example 128, Methyl 6-(cyclopropanecarboxamido)-4-((5-((1-fluorocyclopropyl)(hydroxy)methyl)-4-methoxy-1-methyl-1H-indazol-3-yl)amino)nicotinate] | 17.3 nM | 0.26 nM | –
CCC(F)(F)c1cnc(NC(=O)C2CC2)cc1Nc1nn(C)c2ccc(C(O)C(F)(F)F)c(OC)c12 (single isomer, unassigned) [Example 193B, (R*)-N-(5-(1,1-Difluoropropyl)-4-((4-methoxy-1-methyl-5-(2,2,2-trifluoro-1-hydroxyethyl)-1H-indazol-3-yl)amino)pyridin-2-yl)cyclopropanecarboxamide] | – | 1.18 nM | 45 nM

Further lines, results first:

IC50 ([1]; Mus musculus, BaF3, 72 h) | IC50 (TYK2-JH2 domain) | IC50 [1] | Compound
11.4 nM | 0.162 nM | – | COC(=O)c1cnc(NC(=O)C2CC2)cc1Nc1nn(C)c2ccc(C(C)OC)c(OC)c12 (centres unmarked) [Example 112, Methyl 6-(cyclopropanecarboxamido)-4-((4-methoxy-5-(1-methoxyethyl)-1-methyl-1H-indazol-3-yl)amino)nicotinate]
5.58 nM | 0.182 nM | – | COC(=O)c1cnc(NC(=O)C2CC2)cc1Nc1nn(C)c2ccc(C(OC)C(C)(F)F)c(OC)c12 (centres unmarked) [Example 115, Methyl 6-(cyclopropanecarboxamido)-4-((5-(2,2-difluoro-1-methoxypropyl)-4-methoxy-1-methyl-1H-indazol-3-yl)amino)nicotinate]
12 nM | 0.185 nM | – | COC(=O)c1cnc(Nc2ccc(F)cn2)cc1Nc1nn(C)c2ccc(C(OC)C(F)(F)F)c(OC)c12 (centres unmarked) [Example 142, Methyl 6-((5-fluoropyridin-2-yl)amino)-4-((4-methoxy-1-methyl-5-(2,2,2-trifluoro-1-methoxyethyl)-1H-indazol-3-yl)amino)nicotinate]
– | 0.095 nM | 2.51 nM | [2H]C([2H])([2H])OC(c1ccc2c(c(Nc3cc(NC(=O)C4CC4)ncc3C(=O)OC)nn2CCOC)c1OC)C(F)(F)F (single isomer, unassigned) [Example 157A, Methyl (S*)-6-(cyclopropanecarboxamido)-4-((4-methoxy-1-(2-methoxyethyl)-5-(2,2,2-trifluoro-1-methoxyethyl)-1H-indazol-3-yl)amino)nicotinate]
0.235 nM | 0.055 nM | – | [2H]C([2H])([2H])NC(=O)c1cnc(NC(=O)C2CC2)cc1Nc1nn(C([2H])([2H])[2H])c2ccc([C@H](OC)C(F)(F)F)c(OC)c12 [Example 153, (S)-6-(cyclopropanecarboxamido)-4-((4-methoxy-1-(methyl-d3)-5-(2,2,2-trifluoro-1-methoxyethyl)-1H-indazol-3-yl)amino)-N-(methyl-d3)nicotinamide]
30.9 nM | 0.481 nM | – | COC(=O)c1cnc2cc1Nc1nn(c3ccc(C(OC)C(F)(F)F)c(OC)c13)CCOCc1nc(ccc1F)N2 (centres unmarked) [Example 179, Methyl 12-fluoro-23-methoxy-22-(2,2,2-trifluoro-1-methoxyethyl)-15-oxa-2,6,8,18,25,26-hexaazapentacyclo[16.6.1.1^{3,7}.1^{9,13}.0^{19,24}]heptacosa-1(25),3(27),4,6,9,11,13(26),19,21,23-decaene-4-carboxylate]
19 nM | 0.364 nM | – | COC(=O)c1cnc(NC(=O)C2CC2)cc1Nc1csc2ccc(C(OC)C(F)(F)F)c(OC)c12 (centres unmarked) [Example 111, Methyl 6-(cyclopropanecarboxamido)-4-((4-methoxy-5-(2,2,2-trifluoro-1-methoxyethyl)benzo[b]thiophen-3-yl)amino)nicotinate]
74 nM | 0.568 nM | – | COC(=O)c1cnc(NC(=O)C2CC2)cc1Nc1nn(C)c2ccc(C3(C(F)(F)F)CC3)c(OC)c12 [Example 161, Methyl 6-(cyclopropanecarboxamido)-4-((4-methoxy-1-methyl-5-(1-(trifluoromethyl)cyclopropyl)-1H-indazol-3-yl)amino)nicotinate]
